Laboratory results published in ChEMBL document CHEMBL2331321, “Design, synthesis, and biological evaluation of 3-aryl-3-hydroxy-1-phenylpyrrolidine derivatives as novel androgen receptor antagonists” (Bioorg Med Chem, 2013).

Experiments:
[1] = target: T1, Androgen receptor (Homo sapiens, UniProt P10275)
T1 sequence (P10275 whole entry): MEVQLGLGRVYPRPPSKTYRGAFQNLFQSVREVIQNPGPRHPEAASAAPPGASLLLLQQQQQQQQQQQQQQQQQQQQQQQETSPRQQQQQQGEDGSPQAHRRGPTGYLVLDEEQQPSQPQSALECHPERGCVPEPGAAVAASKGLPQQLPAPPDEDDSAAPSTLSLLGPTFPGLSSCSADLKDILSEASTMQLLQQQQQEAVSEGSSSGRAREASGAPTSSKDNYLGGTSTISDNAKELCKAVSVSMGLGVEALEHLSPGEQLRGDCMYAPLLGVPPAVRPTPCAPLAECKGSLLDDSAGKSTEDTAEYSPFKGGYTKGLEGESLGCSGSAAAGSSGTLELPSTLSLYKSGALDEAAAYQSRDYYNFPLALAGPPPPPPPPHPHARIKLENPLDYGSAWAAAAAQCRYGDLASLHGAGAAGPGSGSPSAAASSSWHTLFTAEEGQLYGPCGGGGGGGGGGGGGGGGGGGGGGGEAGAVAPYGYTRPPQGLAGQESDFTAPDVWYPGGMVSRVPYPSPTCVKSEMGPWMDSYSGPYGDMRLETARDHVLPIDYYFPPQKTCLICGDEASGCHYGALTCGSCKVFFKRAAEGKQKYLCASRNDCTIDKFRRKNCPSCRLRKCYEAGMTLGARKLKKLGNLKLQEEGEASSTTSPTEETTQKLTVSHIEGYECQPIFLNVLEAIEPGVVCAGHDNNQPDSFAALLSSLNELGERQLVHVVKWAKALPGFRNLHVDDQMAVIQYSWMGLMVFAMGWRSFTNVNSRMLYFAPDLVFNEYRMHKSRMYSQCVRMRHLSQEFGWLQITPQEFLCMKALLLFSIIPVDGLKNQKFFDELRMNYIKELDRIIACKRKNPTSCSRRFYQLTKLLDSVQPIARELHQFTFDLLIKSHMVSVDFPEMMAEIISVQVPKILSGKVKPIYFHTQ
Description: Inhibition of wild type Androgen receptor (unknown origin) expressed in Freestyle293F cells

[2] = target: T2, Androgen receptor (Homo sapiens, UniProt P10275, T878A)
T2 sequence (P10275 whole entry T878A): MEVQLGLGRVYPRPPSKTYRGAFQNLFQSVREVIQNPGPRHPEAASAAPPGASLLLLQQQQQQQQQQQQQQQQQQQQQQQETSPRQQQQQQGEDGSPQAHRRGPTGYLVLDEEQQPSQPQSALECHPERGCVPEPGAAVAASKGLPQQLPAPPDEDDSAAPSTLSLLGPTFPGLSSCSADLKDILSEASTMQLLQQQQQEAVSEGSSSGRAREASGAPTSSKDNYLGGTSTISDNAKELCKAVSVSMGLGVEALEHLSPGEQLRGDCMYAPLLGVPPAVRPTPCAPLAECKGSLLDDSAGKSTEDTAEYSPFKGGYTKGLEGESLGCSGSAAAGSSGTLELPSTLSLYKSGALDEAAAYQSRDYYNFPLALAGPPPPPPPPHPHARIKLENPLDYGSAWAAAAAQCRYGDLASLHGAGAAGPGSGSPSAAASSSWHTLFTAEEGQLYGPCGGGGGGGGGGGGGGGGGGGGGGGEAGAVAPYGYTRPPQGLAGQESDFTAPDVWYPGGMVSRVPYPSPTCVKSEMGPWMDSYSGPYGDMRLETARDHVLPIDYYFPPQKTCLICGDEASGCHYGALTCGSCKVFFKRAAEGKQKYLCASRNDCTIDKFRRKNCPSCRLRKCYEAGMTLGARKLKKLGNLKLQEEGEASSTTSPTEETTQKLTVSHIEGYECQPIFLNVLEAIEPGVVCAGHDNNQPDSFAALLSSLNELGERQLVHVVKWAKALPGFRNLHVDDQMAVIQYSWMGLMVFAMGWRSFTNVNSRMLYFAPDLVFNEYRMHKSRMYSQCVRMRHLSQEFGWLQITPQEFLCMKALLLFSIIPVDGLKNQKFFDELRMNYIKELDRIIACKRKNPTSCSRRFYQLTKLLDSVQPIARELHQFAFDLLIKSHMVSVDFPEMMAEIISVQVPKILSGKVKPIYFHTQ
Description: Antagonist activity at Androgen receptor T877A mutant (unknown origin) expressed in human Cos-7 cells co-expressing pGL3-MMTV-luc vector assessed as luciferase activity by reporter gene assay

[3] = target: T1, Androgen receptor; remark: listed apart in the source
Description: Antagonist activity at wild type Androgen receptor (unknown origin) expressed in human Cos-7 cells co-expressing pGL3-MMTV-luc vector assessed as luciferase activity by reporter gene assay

[4] = target: T1, Androgen receptor; remark: listed apart in the source
Description: Agonist activity at wild type Androgen receptor in human LNCaP-hr cells assessed as prostate specific antigen secretion measured after 3 days by enzyme-immunoassay

[5] = target: T2, Androgen receptor; remark: listed apart in the source
Description: Inhibition of Androgen receptor T877A mutant (unknown origin) expressed in Freestyle293F cells

[6] = target: T2, Androgen receptor; remark: listed apart in the source
Description: Agonist activity at Androgen receptor T877A mutant in human LNCaP-hr cells assessed as prostate specific antigen secretion measured after 3 days by enzyme-immunoassay

[7] = Antitumor activity against human LNCaP-hr cells in BALB/c mouse xenograft model assessed as inhibition of tumor growth at 30 mg/kg, po bid for 28 days (reference value: 100%); format: functional
[8] = Antitumor activity against human LNCaP-hr cells in BALB/c mouse xenograft model assessed as plasma prostate specific antigen level at 30 mg/kg, po bid for 28 days by ELISA (reference value: 23.8 +/- 6.1 ng/ml); format: functional
[9] = Antitumor activity against human LNCaP-hr cells in BALB/c mouse xenograft model assessed as inhibition of tumor growth at 10 mg/kg, po bid for 28 days (reference value: 100%); format: functional
[10] = Mean residence time in mouse at 30 mg/kg, po; format: ADME, organism-based; parameters: dose 30 mg/kg, route oral; conditions: in vivo
[11] = Antitumor activity against human LNCaP-hr cells in BALB/c mouse xenograft model assessed as plasma prostate specific antigen level at 10 mg/kg, po bid for 28 days by ELISA (reference value: 23.8 +/- 6.1 ng/ml); format: functional
[12] = AUC in mouse at 30 mg/kg, po; format: ADME, organism-based; parameters: dose 30 mg/kg, route oral; conditions: plasma
[13] = Half life in mouse plasma; format: ADME, cell-free
[14] = Antitumor activity against human LNCaP-hr cells in BALB/c mouse xenograft model assessed as plasma prostate specific antigen level at 100 mg/kg, po qd for 28 days by ELISA (reference value: 23.8 +/- 6.1 ng/ml); format: functional
[15] = Antitumor activity against human LNCaP-hr cells in BALB/c mouse xenograft model assessed as inhibition of tumor growth at 100 mg/kg, po qd for 28 days (reference value: 100%); format: functional

Compound	IC50 [1] [nM]	IC50 [2] [nM]	IC50 [3] [nM]	EC50 [4] [nM]	IC50 [5] [nM]	EC50 [6] [nM]	other results
N#Cc1ccc(N2CCC(O)(Cc3ccccc3)C2)cc1Cl (configuration not stated)	420	450	1000	> 10000	59	4800	
N#Cc1ccc(N2CCC(O)C2)cc1Cl (configuration not stated)	120	> 10000	82	4700	30	640	
C[C@@H]1N(c2ccc(C#N)c(Cl)c2)CC[C@@]1(O)c1ccc(F)cc1	8	> 10000	17	> 10000	8.1	20	
C[C@@H]1N(c2ccc(C#N)c(Cl)c2)CC[C@@]1(O)c1ccc(C(N)=O)cc1	27	9	17	> 10000	42	10000	
CNC(=O)c1ccc([C@]2(O)CCN(c3ccc(C#N)c(Cl)c3)[C@H]2C)cc1	32	10	8.6	> 10000	18	10000	
CNC(=O)c1ccc([C@]2(O)CCN(c3ccc(C#N)c(Cl)c3)[C@H]2C)nc1	68	100	120	> 10000	16	5100	
CNC(=O)c1ccc([C@]2(O)CCN(c3ccc(C#N)c(Cl)c3)[C@H]2C)cn1	44	99	25	> 10000	100	> 10000	
C[C@@H]1N(c2ccc(C#N)c(Cl)c2)CC[C@@]1(O)c1ccc(C(=O)N(C)C)nc1	1100	10000	1700	> 10000	3000	> 10000	
CNC(=O)c1ccc([C@@]2(O)CCN(c3ccc(C#N)c(Cl)c3)[C@@H]2C)cn1	1600	1600	6400	> 10000	97	> 10000	
C[C@@H]1N(c2ccc(C#N)c(Cl)c2)CC[C@@]1(O)c1ccc(N2CCCC2=O)nc1	13	160	11		87		
CNC(=O)c1ccc([C@]2(O)CCN(c3ccc(C#N)c(OC)c3)[C@H]2C)cn1	120	730	62		240		
CNC(=O)c1ccc([C@]2(O)CCN(c3ccc(C#N)cc3)[C@H]2C)cn1	7600	1400	400		5300		
CNC(=O)c1ccc([C@]2(O)CCN(c3ccc(C#N)c(F)c3)[C@H]2C)cn1	830	1700	290		1700		T/C [7]: 18%; Activity [8]: 4.3 ng/mL; T/C [9]: 139%; MRT [10]: 4.07 h; Activity [11]: 33 ng/mL; AUC [12]: 232 µg·h/mL
N#Cc1ccc(N2CCC(O)(c3ccccc3)C2)cc1Cl (racemic)	370	250	380	> 10000	130	> 10000	
N#Cc1ccc(N2CCC(O)(c3ccc(F)cc3)C2)cc1Cl (racemic)	180	65	68	> 10000	36	> 10000	
C[C@](O)(CS(=O)(=O)c1ccc(F)cc1)C(=O)Nc1ccc(C#N)c(C(F)(F)F)c1 [(R)-BICALUTAMIDE]							half-life [13]: 101 h
C[C@@](O)(CS(=O)(=O)c1ccc(F)cc1)C(=O)Nc1ccc(C#N)c(C(F)(F)F)c1 [(S)-BICALUTAMIDE]							half-life [13]: 19 h
CC(O)(CS(=O)(=O)c1ccc(F)cc1)C(=O)Nc1ccc(C#N)c(C(F)(F)F)c1 (configuration not stated) [BICALUTAMIDE]							Activity [14]: 45.6 ng/mL; T/C [15]: 191%
